Consider three compounds from patent publication US20210024498A1, “TETRAHYDROPYRROLE COMPOUND, PREPARATION METHOD THEREFOR, PHARMACEUTICAL COMPOSITION CONTAINING SAME, AND USE THEREOF” (MEDICONNS (SHANGHAI) BIOPHARMACEUTICAL CO., LTD, priority 2017, published 2021).

pIC50: −log10 of the molar value.

The target in test [1] is T1, D2 receptor (Homo sapiens, UniProt P14416).
T1 construct: expressed in transfected cells; host or cells: HEK293
Briefly: D2 receptor affinity assay (radioligand competition, 3H-7-OH-DPAT). It is filed as binding. The note with it: cloned D2 receptor expressed in HEK293 cell line; 3H-7-OH-DPAT 1 nM. As for the experimental part: (§1) Bioactivity Test • I. D2 receptor affinity assay: The affinity of the compound to D2 receptor was determined by radioligand competition assay, and the cloned D2 receptor was expressed in HEK293 cell line. • II. D2 receptor function assay: The ability of the compound to antagonize the D2 receptor was determined using a calcium mobilization assay (FLIPR). • III. DAT receptor function assay: The ability of the compound to inhibit DAT was determined by neurotransmitter transporter absorption assay.
• Experimental buffer: 50 mM Tris-HCl, pH 7.4, 5 mM MgCl2 • Washing buffer: 50 mM Tris-HCl pH 7.4, stored at 4° C. ready for use.
• The compound and positive control 7-OH-DPAT were serially diluted with DMSO, with the initial concentration of 2 mM and 4 times serial dilution, a total of 10 concentrations. 1 μL was transferred to the designated position of the 96-well plate. • 1 μL droperidol (final concentration 10 μM) was added to the positive control well. 1 μL DMSO was added to the negative control well.
• Receptor cell membrane was diluted to 10 μg/well with corresponding experimental buffer, with 100 μL cell membrane/well.
• 3H-7-OH-DPAT was diluted to 2 nM with corresponding experimental buffer, and the final concentration was 1 nM.
• After 100 μL of cell membrane and isotope were added, respectively, the reaction plate of the D2 receptor was incubated at room temperature for 1 hour. The GF/C filter plate was soaked in 0.3% PEI solution for more than half an hour. After the reaction was completed, the cell membrane was collected on the GF/C filter plate using the […], washed 4 times with cold washing buffer, and then dried in an oven at 50° C. for 1 hour. The dried GF/C filter plate was sealed at the bottom, 50 μL of scintillation fluid was added to each well and the well was sealed. Reads were obtained by MicroBeta and the data was analyzed using GraphPad Prism 5.0.
Ki=IC50/(1+isotope concentration/Kd)

The target in test [2] is T1, D2 receptor. The test is described as follows: D2 receptor function assay, calcium mobilization (FLIPR). It is filed as cell-based. The note with it: HEK293, antagonism of D2 receptor. As for the experimental part: as §1
• Cell line: HEK293 • DMEM medium (Invitrogen) • Fetal bovine serum (FBS, Invitrogen) • L-Glutamine (Invitrogen) G418 (Invitrogen) • Blasticidin (Invitrogen)
• Fluo-4 Direct Kit (Invitrogen)
• 250 mM Probenecid solution was formulated: according to the kit instructions, 1 mL of FLIPR buffer salt solution was added to 77 mg probenecid just before needed. • 2× (8 μM) Fluo-4 Direct™ loading buffer was formulated: the number of tubes in Fluo-4 Direct™ needed for the experiment was melted in advance. Just before needed, 10 ml of FLIPR buffer salt solution and 0.2 mL of 250 mM Probenecid solution were added to each tube and vortexed in dark for more than 5 minutes.
• a) One tube of cells was taken from the liquid nitrogen tank and quickly thawed in 37° C. water bath. • b) The cell suspension was added to a centrifuge tube to which the preheated 20 ml medium was added in advance. • c) The centrifuge tube was centrifuged at 1000 rpm for 5 minutes at room temperature. • d) The supernatant was slowly decanted to avoid affecting the precipitated cells. • e) The cells were resuspended with 10-30 ml medium by pipetting the cells gently with a pipette. • f) The viability and number of cells were calculated with the cell counter. • g) The cells were diluted to 1×10^5 cells/ml with medium, and inoculated in the 384-well polylysine coated cell plate at 20 μL/well. • h) The plate was incubated in an incubator at 5% CO2, 37° C. for 16 to 20 hours.
10 μL of experimental buffer salt solution was added into the cell plate according to the set program, and the fluorescence signal was read. 10 μL of agonist reference compound was further added at a given concentration to the cell plate and the fluorescence signal was read. After reading, the data was derived by “Max-Min” and “Read 90 to Maximum Allowed” methods in the software and EC80 of the corresponding cell line was calculated, and the reference compound with a concentration of 6× EC80 was prepared. • f) The FLIPR instrument software was run. 10 μL of the compound to be tested and the reference compound at a given concentration were added into the cell plate according to the set program, and the fluorescence signal was read. 10 μL of reference compound agonist was further added at a concentration of 6× EC80 to the cell plate and the fluorescence signal was read. • g) Data Analysis • Calculation formula for data in the project:
Inhibitor % activity=100−(signal value per well−average value for high dose control group of inhibitor)/(average value for DMSO control group−average value for high dose control group of inhibitor)*100%.

T1 sequence (P14416 whole entry): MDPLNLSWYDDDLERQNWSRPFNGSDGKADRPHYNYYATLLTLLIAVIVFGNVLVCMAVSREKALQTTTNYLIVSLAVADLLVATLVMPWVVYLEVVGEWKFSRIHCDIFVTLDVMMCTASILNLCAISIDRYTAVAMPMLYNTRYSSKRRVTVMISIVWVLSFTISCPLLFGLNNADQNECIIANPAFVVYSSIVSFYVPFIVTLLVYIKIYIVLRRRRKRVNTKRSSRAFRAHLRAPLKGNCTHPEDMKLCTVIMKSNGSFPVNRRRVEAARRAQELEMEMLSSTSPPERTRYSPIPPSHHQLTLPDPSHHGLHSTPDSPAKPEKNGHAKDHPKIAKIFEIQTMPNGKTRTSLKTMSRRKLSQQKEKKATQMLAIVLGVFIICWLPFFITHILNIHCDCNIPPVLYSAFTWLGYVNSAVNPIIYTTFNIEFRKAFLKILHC

Regarding `O=S(=O)(CC(F)(F)F)Nc1cccc(C2CCN(Cc3c[nH]c4ccccc34)C2)c1` (stereo not drawn) [MDC-161502-006, 1-(indole-3-methyl)-3-(3-trifluoroethanesulfonamidophenyl)pyrrolidine], the pIC50 at D2 receptor [1] was 6.19; on D2 receptor [2], 6.77.

Take `Oc1cccc(C2CCN(Cc3c[nH]c4ccccc34)C2)c1` (racemic) [MDC-161502-002, 1-(indole-3-methyl)-3-(3-hydroxyphenyl)pyrrolidine]: the pIC50 on D2 receptor [1] is 7.85; on D2 receptor [2], 8.70.

Take `O=S(=O)(Nc1cccc(C2CCN(Cc3c[nH]c4ccccc34)C2)c1)c1cccs1` (stereo not drawn) [MDC-161502-008, 1-(indole-3-methyl)-3-[3-(2-thiophenesulfonamido)phenyl]pyrrolidine]: the pIC50 is 6.92 on D2 receptor [1] and 8.27 at D2 receptor [2].
